Literature values, collected in patent publication US12539302B2, “Methods and compositions for the treatment of hair loss” (Aneira Pharma, Inc., priority 2019, dated 2026).
Like-named read-outs stand apart in the source and are kept apart here. Each block holds one compound with its values, some of them ahead of it.

Assays:
[1] = system: dihydrotestosterone (DHT) production; details: oral; including prostate gland and scalp
[2] = system: hair growth
[3] = target: T1, human FP receptors (Homo sapiens, UniProt P43088); details: FP receptor agonist
T1 sequence (P43088 whole entry): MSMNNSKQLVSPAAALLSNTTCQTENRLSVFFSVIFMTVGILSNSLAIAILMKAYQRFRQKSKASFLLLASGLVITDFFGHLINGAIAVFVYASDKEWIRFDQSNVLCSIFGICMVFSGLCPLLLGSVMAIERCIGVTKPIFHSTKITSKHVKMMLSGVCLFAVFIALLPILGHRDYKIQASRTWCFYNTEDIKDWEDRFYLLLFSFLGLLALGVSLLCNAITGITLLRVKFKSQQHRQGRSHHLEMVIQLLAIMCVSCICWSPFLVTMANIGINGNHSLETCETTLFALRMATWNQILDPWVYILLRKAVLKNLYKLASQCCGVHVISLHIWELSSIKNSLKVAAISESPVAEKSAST

[4] = target: T1, human FP receptors
[5] = system: elevated intraocular pressure model of glaucoma; details: Gagliuso et al. 2004
[6] = system: elevated intraocular pressure; details: patients non-responsive to latanoprost, Gandolfi 2003
[7] = system: hair growth; details: McCarey et al. 2004
[8] = propylene glycol, methanol, ethanol and 2-propanol

SMILES: CC(C)(C)NC(=O)[C@H]1CC[C@H]2[C@@H]3CC[C@H]4NC(=O)C=C[C@]4(C)[C@H]3CC[C@]12C [finasteride, (1S,3aS,3bS,5aR,9aR,9bS,11aS)-N-tert-butyl-9a,11a-dimethyl-7-oxo-1,2,3,3a,3b,4,5,5a,6,9b,10,11-dodecahydroindeno[5,4-f]quinoline-1-carboxamide]
decrease of DHT production [1]: about 70%

SMILES: Nc1cc(N2CCCCC2)nc(N)[n+]1OS(=O)(=O)[O-] [minoxidil sulphate]
potency as hair growth agent compared to minoxidil [2]: much more potent

potency relative to PGF2α [3]: twice the potency | potency as FP receptor ligand relative to latanoprost [4]: two-hundred times more potent
SMILES: O=C(O)CCC/C=C\C[C@@H]1[C@@H](CC[C@@H](O)CCc2ccccc2)[C@H](O)C[C@@H]1O [Latanoprost free acid, Latanoprost acid]

SMILES: CCNC(=O)CCC/C=C\C[C@@H]1[C@@H](/C=C/[C@@H](O)CCc2ccccc2)[C@H](O)C[C@@H]1O [bimatoprost, Bimatoprost]
effect on elevated intraocular pressure in combination [5]: additive to that of latanoprost | response in reducing elevated intraocular pressure [6]: responsive

SMILES: CCCCCCCC(=O)CC[C@@H]1[C@@H](C/C=C\CCCC(=O)O)[C@@H](O)C[C@H]1O [uenoprostone free acid]
hair growth [7]: cause no hair growth

solubility, highest concentration that can be used [8]: ≥ 5% | time stable (acidic or basic aqueous solutions): no more than 48 hours | time stable (neutral aqueous solutions, room temperature): stable for up to one month
SMILES: CC(C)OC(=O)CCC/C=C\C[C@@H]1[C@@H](CC[C@@H](O)CCc2ccccc2)[C@H](O)C[C@@H]1O [latanoprost, Latanoprost]

SMILES: CCCCCCCC(=O)CC[C@@H]1[C@@H](C/C=C\CCCC(=O)OC(C)C)[C@@H](O)C[C@H]1O [Uenoprostone isopropyl ester, Unoprostone isopropyl ester]
hair growth [7]: cause no hair growth
